Laboratory results reported in US20170001988A1, “PIPERIDINE AND PIPERAZINE DERIVATIVES AND THEIR USE IN TREATING VIRAL INFECTIONS AND CANCER” (THE UNITED STATES OF AMERICA, AS REPRESENTED BY THE …, priority 2013, published 2017).
Where two headings read alike, the source gives them in different places.

Experiments:
[1] = system: HCV-Luc; assay: HCV-Luc infection assay; type: cell-based; conditions: for EC50: Hepatitis C virus
[2] = system: Huh7.5.1 cells; assay: ATPLite cytotoxicity assay
Source text: (§1) EC50 was generated using the HCV-Luc infection assay and IC50 using the ATPLite assay.
(§2) EC50 was generated using the HCV-Luc infection assay and TC50 using the ATPLite assay.
(§3) The cytotoxicity of the compounds was further evaluated in HepG2 cells and primary human hepatocytes.

[3] = ATPLite cytotoxicity assay; conditions: human, Huh7.5.1 cells
Source text: as §1, §2, §3

SMILES	CC50 ([2]; human) [µM]	EC50 ([1]; Table 3, read-out: EC50) [µM]	Selective Index ([1]; Table 3)	also measured
CN1CCCN(C(c2ccccc2)c2ccc(Cl)cc2)CC1 (stereo not shown)	–	–	–	EC50 ([1]; Table 5, read-out: EC50): 0.057 ± 0.008 µM; Selective Index ([1]; Table 5): 225; CC50 ([2]; Table 5): 12.8 ± 0.1 µM
Clc1ccc(C(c2ccc(Cl)cc2)N2CCCCC2)cc1	69 ± 0.9	–	–	EC50 ([1]; Table 5, read-out: EC50): 17.4 ± 2.8 µM; Selective Index ([1]; Table 5): 4
Clc1ccc(C(c2ccc(Cl)cc2)N2CCOCC2)cc1	62.1 ± 2.8	–	–	EC50 ([1]; Table 5, read-out: EC50): 29.7 ± 0.1 µM; Selective Index ([1]; Table 5): 2
CN1CCC(N(c2ccccc2)c2ccccc2)CC1	56.8 ± 8.2	–	–	EC50 ([1]; Table 5, read-out: EC50): 2.72 ± 1.13 µM; Selective Index ([1]; Table 5): 21
CN1CCC(N(c2ccccc2)c2ccc(OC(C)(C)C)cc2)CC1	78.7 ± 0.6	–	–	EC50 ([1]; Table 5, read-out: EC50): 0.354 ± 0.097 µM; Selective Index ([1]; Table 5): 222
c1ccc(C(c2ccccc2)C2CCNCC2)cc1	–	–	–	EC50 ([1]; Table 5, read-out: EC50): 0.072 ± 0.002 µM; Selective Index ([1]; Table 5): 451; CC50 ([2]; Table 5): 32.5 ± 0.1 µM
c1ccc(C(c2ccccc2)c2ccncc2)cc1	65.1 ± 2.1	–	–	EC50 ([1]; Table 5, read-out: EC50): > 31.5 µM; Selective Index ([1]; Table 5): <2
CCN1CCN(C2c3ccccc3-c3ccc(Br)cc32)CC1 (stereo not shown)	53.1 ± 1.3	–	–	EC50 ([1]; Table 5, read-out: EC50): 1.68 ± 0.45 µM; Selective Index ([1]; Table 5): 32
CC(C)(C)OC(=O)NCCOCCOCCOCCOCCN1CCN(C(c2ccccc2)c2ccc(Cl)cc2)CC1 (racemic) [(CH2CH2O)4(CH2)2NHC(═O)Ot-Bu (R,S), tert-Butyl (14-(4-((4-chlorophenyl)(phenyl)methyl)piperazin-1-yl)-3,6,9,12-tetraoxatetradecyl)carbamate]	19 ± 4	0.199 ± 0.03	95	–
CC(=O)NCCOCCOCCOCCOCCN1CCN(C(c2ccccc2)c2ccc(Cl)cc2)CC1 (racemic) [(CH2CH2O)4CH2CH2NHC(═O)Me (R,S), N-(14-(4-((4-Chlorophenyl)(phenyl)methyl)piperazin-1-yl)-3,6,9,12-tetraoxatetradecyl)acetamide]	> 100	0.17 ± 0.022	>588	–
NCCOCCN1CCN(C(c2ccccc2)c2ccc(Cl)cc2)CC1 (racemic) [CH2CH2OCH2CH2NH2 (R,S), 2-(2-(4-((4-Chlorophenyl)(phenyl)methyl)piperazin-1-yl)ethoxy)ethanamine]	8.18	0.0048 ± 0.0011	1704	–
OCCOCCN1CCN(C(c2ccccc2)c2ccc(Cl)cc2)CC1 (racemic) [CH2CH2OCH2CH2OH (R,S), 2-(2-(4-((4-Chlorophenyl)(phenyl)methyl)piperazin-1-yl)ethoxy)ethanol]	–	0.032 ± 0.011	–	Selective Index [1]: 1331; CC50 [3]: 42.6 ± 1.8 µM
NC(=O)COCCN1CCN(C(c2ccccc2)c2ccc(Cl)cc2)CC1 (racemic) [CH2CH2OCH2CONH2 (R,S), 2-(2-(4-((4-Chlorophenyl)(phenyl)methyl)piperazin-1-yl)ethoxy)acetamide]	> 100	0.103 ± 0.052	>910	–
O=C(O)COCCN1CCN(C(c2ccccc2)c2ccc(Cl)cc2)CC1 (racemic) [CH2CH2OCH2COOH (R,S), 2-(2-(4-((4-Chlorophenyl)(phenyl)methyl)piperazin-1-yl)ethoxy) acetic acid]	–	> 31.6	–	–
COc1ccc(CN2CCN([C@@H](c3ccccc3)c3ccc(Cl)cc3)CC2)c(OC)c1 [2-4-dimethoxybenzyl (S), (S)-1-((4-Chlorophenyl)(phenyl)methyl)-4-(2,4-dimethoxybenzyl)piperazine]	38.4 ± 4.2	0.456 ± 0.235	84	–
O=C1c2ccccc2C(=O)N1CCOCCN1CCN(C(c2ccccc2)c2ccc(Cl)cc2)CC1 (stereo not shown) [2-(2-(2-(4-((4-Chlorophenyl)(phenyl)methyl)piperazin-1-yl)ethoxy)ethyl)isoindoline-1,3-dione]	> 100	1.54 ± 0.57	>65	–
CC(C)CN1CCN([C@H](c2ccccc2)c2ccc(Cl)cc2)CC1 [2-methyl-1-propyl (R), (R)-1-((4-Chlorophenyl)(phenyl)methyl)-4-isobutylpiperazine]	58.2 ± 7.2	0.232 ± 0.061	251	–
CC(C)CN1CCN([C@@H](c2ccccc2)c2ccc(Cl)cc2)CC1 [2-methyl-1-propyl (S), (S)-1-((4-Chlorophenyl)(phenyl)methyl)-4-isobutylpiperazine]	51.7 ± 1.4	0.102 ± 0.018	507	–

SMILES	CC50 ([2]; human) [µM]	EC50 ([1]; Table 3, read-out: EC50) [µM]	Selective Index ([1]; Table 3)	also measured
CC(=O)N1CCN([C@@H](c2ccccc2)c2ccc(Cl)cc2)CC1 [Acetyl (S), (S)-1-(4-((4-Chlorophenyl)(phenyl)methyl)piperazin-1-yl)ethanone]	91.3 ± 1	22 ± 3.2	4	–
[2H]C([2H])([2H])N1CCN([C@H](c2ccccc2)c2ccc(Cl)cc2)CC1 [CD3 (R), (R)-1-((4-Chlorophenyl)(phenyl)methyl)-4-methyl(d3)piperazine]	46.7 ± 0.4	0.04 ± 0.017	–	–
[2H]C([2H])([2H])N1CCN([C@@H](c2ccccc2)c2ccc(Cl)cc2)CC1 [CD3 (S), (S)-1-((4-Chlorophenyl)(phenyl)methyl)-4-methyl(d3)piperazine]	77.9 ± 3.1	0.063 ± 0.025	–	–
[2H]C([2H])([2H])CN1CCN([C@H](c2ccccc2)c2ccc(Cl)cc2)CC1 [CD3CH2 (R), (R)-1-((4-Chlorophenyl)(phenyl)methyl)-4-ethyl(2,2,2-d3)piperazine]	81.5 ± 0.5	–	–	–
[2H]C([2H])([2H])CN1CCN([C@@H](c2ccccc2)c2ccc(Cl)cc2)CC1 [CD3CH2 (S), (S)-1-((4-Chlorophenyl)(phenyl)methyl)-4-ethyl(2,2,2-d3)piperazine]	71.3 ± 11.4	–	–	–
FC(F)(F)CN1CCN([C@H](c2ccccc2)c2ccc(Cl)cc2)CC1 [CF3CH2 (R), (R)-1-((4-Chlorophenyl)(phenyl)methyl)-4-(2,2,2-trifluoroethyl)piperazine]	> 100	> 31.6	–	–
FC(F)(F)CN1CCN([C@@H](c2ccccc2)c2ccc(Cl)cc2)CC1 [CF3CH2 (S), (S)-1-((4-Chlorophenyl)(phenyl)methyl)-4-(2,2,2-trifluoroethyl)piperazine]	> 100	> 31.6	–	–
OCCOCCN1CCN(C(c2ccc(Cl)cc2)c2ccc(Cl)cc2)CC1 [Cl, Cl, CH2CH2OCH2CH2OH, 2-(2-(4-(bis(4-Chlorophenyl)methyl)piperazin-1-yl)ethoxy)ethanol]	–	–	–	EC50 [1]: 0.0055 ± 0.0022 µM
Clc1ccc([C@H](c2ccccc2)N2CCN(C3CCCCC3)CC2)cc1 [Cyclohexyl (S), (S)-1-((4-Chlorophenyl)(phenyl)methyl)-4-cyclohexylpiperazine]	12.3 ± 0.3	0.177 ± 0.037	69	–
Clc1ccc([C@H](c2ccccc2)N2CCN(C3CCCC3)CC2)cc1 [Cyclopentyl (S), (S)-1-((4-Chlorophenyl)(phenyl)methyl)-4-cyclopentylpiperazine]	30.4 ± 2.8	0.019 ± 0.006	1600	–
CCN1CCN([C@H](c2ccccc2)c2ccc(Cl)cc2)CC1 [Et (R), (R)-1-((4-Chlorophenyl)(phenyl)methyl)-4-ethylpiperazine]	37.9 ± 3.3	–	–	–
Clc1ccc([C@@H](c2ccccc2)N2CCNCC2)cc1 [H (R), (R)-1-((4-Chlorophenyl)(phenyl)methyl)piperazine]	12.5 ± 1.4	0.032 ± 0.022	391	–
Clc1ccc([C@H](c2ccccc2)N2CCNCC2)cc1 [H (S), (S)-1-((4-Chlorophenyl)(phenyl)methyl)piperazine]	9.31 ± 0.04	0.034 ± 0.012	0274	–
CC(C)N1CCN([C@@H](c2ccccc2)c2ccc(Cl)cc2)CC1 [i-Pr (S), (S)-1-((4-Chlorophenyl)(phenyl)methyl)-4-isopropylpiperazine]	32.4 ± 3.8	0.013 ± 0.004	2492	–
CCCCN1CCN([C@H](c2ccccc2)c2ccc(Cl)cc2)CC1 [n-Bu (R), (R)-1-Butyl-4-((4-chlorophenyl)(phenyl)methyl)piperazine]	40.8 ± 0.4	0.195 ± 0.084	309	–
CCCCN1CCN([C@@H](c2ccccc2)c2ccc(Cl)cc2)CC1 [n-Bu (S), (S)-1-Butyl-4-((4-chlorophenyl)(phenyl)methyl)piperazine]	31.1 ± 4.2	0.042 ± 0.023	740	–
CCCN1CCN([C@H](c2ccccc2)c2ccc(Cl)cc2)CC1 [n-Pr (R), (R)-1-((4-Chlorophenyl)(phenyl)methyl)-4-propylpiperazine]	48.5 ± 1.1	0.024 ± 0.005	2021	–
CCCN1CCN([C@@H](c2ccccc2)c2ccc(Cl)cc2)CC1 [n-Pr (S), (S)-1-((4-Chlorophenyl)(phenyl)methyl)-4-propylpiperazine]	39.7 ± 0.9	0.032 ± 0.018	1241	–
